Values quoted from earlier work, collected in patent publication US20220080043A1, “OIL/SURFACTANT MIXTURES FOR SELF-EMULSIFICATION” (priority 2019, published 2022).

Details: Table 2; surfactants used

In the case of sorbitan monooleate [Span80], the HLB is listed as 4.3.
